Measurements as given in patent publication US9429582B2, “Tyrosine-phosphorylated WBP2, a novel cancer target and biomarker” (National University of Singapore, priority 2010, dated 2016).
“Also recorded” adds a separate entry of the source.

What was measured:
vector-expressing MCF7 = test: Cell proliferation (MTS / cell numbers) of vector-expressing MCF7; assay type: cell-based, human
Method: A: Whole cell lysates from vector, WBP2-WT, WBP2-Y192-231E mutant and WBP2-Y192-231F mutant expressing MCF7 or Y192-231E mutant expressing MCF7 with WBP2 knockdown were used for IB analysis with antibodies indicated. B: Vector, WBP2-WT, WBP2-Y192-231E mutant or WBP2-Y192-231F mutant-expressing MCF7 were co-transfected with TOPFlash (top panel) or ERE-Luciferase (bottom panel) reporter construct. For cells co-transfected ERE-luciferase, they were either left alone or stimulated with 50 ng/ml Wnt3a ligand for 16 hrs. TCF/ERα luciferase activities in various conditions were then assayed. **P<0.01, ***P<0.001, Student's t-test (2-tailed). C: Vector or WBP2-Y192-231E mutant-expressing MCF7 were treated with indicated concentrations of Tamoxifen(Tam) and/or FH535. Cell numbers were measured. D: Whole cell lysates from WBP2-Y192-231E mutant-expressing MCF7 treated with 2 μM Tam and/or 15 μM FH5353 were harvested at day 2-4 post-treatment and used for IB analysis with antibodies indicated.
Whole cell lysates from vector, WBP2-WT, WBP2-Y192-231E mutant and WBP2-Y192-231F mutant expressing MCF7 (A) or Y192-231E mutant expressing MCF7 with WBP2 knockdown (B) were used for IB analysis with antibodies indicated. Their expression levels were quantified in three independent experiments and the averages were presented relative to actin. Representative blots (order in lanes from left to right: vector, WBP2, Y192-231E, Y192F) were presented as insets to the bar graphs. **P<0.01, ***P<0.001, Student's t-test (2-tailed) relative to vector. […] TCF(C)/ER[…](D) luciferase activities in various conditions were then assayed and analyzed in relative to untreated vector control. **P<0.01, ***P<0.001, Student's t-test (2-tailed). […] Cell numbers were measured daily and compared in relative to vehicle treated vector-expressing cells on Day 0. […] Cell numbers were measured and compared in relative to vehicle-treated cells. Their […] were analyzed statistically with SPSS 13.0. […] Cell numbers were measured on day 2 and day 4 and compared in relative to vehicle-treated control at each day (Top Panel). […]

ERα = test: Immunoblot of ERα expression in drug-treated WBP2-Y192-231E mutant-expressing MCF7; assay type: cell-based, human; conditions: Y192-231E-expressing MCF7; 2 μM Tam and/or 15 μM FH535; day 2-4 post-treatment
Method: For cells co-transfected ERE-luciferase, they were either left alone or stimulated with 50 ng/ml Wnt3a ligand for 16 hrs. TCF/ERα luciferase activities in various conditions were then assayed. **P<0.01, ***P<0.001, Student's t-test (2-tailed). […] Cell numbers were measured.
Their expression levels were quantified in three independent experiments and the averages were presented relative to actin. […] For cells co-transfected ERE luciferase, they were either left alone or stimulated with 50 ng/ml Wnt3a ligand for 16 hrs. TCF(C)/ER[…](D) luciferase activities in various conditions were then assayed and analyzed in relative to untreated vector control. **P<0.01, ***P<0.001, Student's t-test (2-tailed). […] Cell numbers were measured daily and compared in relative to vehicle treated vector-expressing cells on Day 0. […] Cell numbers were measured and compared in relative to vehicle-treated cells. […] Cell numbers were measured on day 2 and day 4 and compared in relative to vehicle-treated control at each day (Top Panel). These treated cells were harvested for IB analysis with antibodies indicated (Bottom Panel).
First, we exposed WBP2 phospho-mimic expressing MCF7 cells to serial concentrations of fulvestrant (0.1 nM, 1 nM, 10 nM, 100 nM and 1 μM) and probed for ERα expression to determine the effective working concentration. […] Next, we compared the growth and proliferation of WBP2 phospho-mimic mutant expressing MCF7 in the presence of 100 nM fulvestrant or 15 μM FH535.

Cc1cc([N+](=O)[O-])ccc1NS(=O)(=O)c1cc(Cl)ccc1Cl [FH535]
inhibition of growth / reduction of proliferation (vector-expressing MCF7; MCF7 cells expressing vector, day 4, 100 nM fulvestrant or 15 μM FH535): about 30% | growth inhibition, dose dependence (vector-expressing MCF7; vector stable transfectant, 0-50 μM FH535 for 2 days): dose dependent growth inhibition | ERα expression (ERα): significantly reduced; also recorded: reducing
